d = 2'-deoxy (DNA)
The substances below were run on Normotensive New Zealand White rabbits (assay: In vivo rabbit model of IOP (contact tonometer)). Conditions: figure legends (FIGS. 5-8), 256 μg dose of siRNA per administration.
Procedure: Normotensive New Zealand White rabbits (males, 2-3 kg) were used in the in vivo assays. The animals were kept in individual cages with free access to food and water. Animals were submitted to artificial 12 hours light/darkness cycles to avoid uncontrolled circadian oscillations of IOP and all experiments were performed at the same time of day to control for any fluctuations in IOP due to circadian oscillations. Animal handling and treatment were carried out in accordance with the European Communities Council Directive (86/609/EEC) and the statement of the Association for Research in Vision and Ophthalmology on the Use of Animals in Ophthalmic and Vision Research. Each animal was used for only one experiment.
IOP measurements were done using a contact tonometer (TonoPen XL, Mentor, Norwell, Mass.) due to past success of measuring intraocular pressures within the range of 3 to 30 mm Hg in rabbits (Abrams et al., 1996, Invest Ophthalmol Vis Sci. 37:940-4). Measurements were performed by delicately applying the tonometer's sensor to the corneal surface of the animal. All measurements fell within the 3 to 30 mm Hg interval with the mean baseline value of intraocular pressure being 17.0±0.39 mm Hg for untreated animals (n=100). In order to avoid distress to the animal, rabbits were topically anesthetized (10 μl of oxibuprocaine/tetracaine, 0.4%/1%, in a saline solution (1/4 v:v)) prior to IOP measurement.
Commercially available drugs were typically administered to the animals by instilling a small volume (typically 40 μl) on the corneal surface. Contralateral eyes were treated with the vehicle alone and were used as controls in each experiment.
siRNA molecules or commercially available drugs were typically administered to the animals as follows. Doses of siRNA in saline solution (0.9% w/v) to a final volume of 40 μl were applied to the corneal surface of one eye each day during four consecutive days. The opposite eye was taken as a control and 40 μl of sterile saline (0.9% w/v) was instilled on it at the same time points. Commercially available drugs were typically administered to the animals by instilling a small volume (typically 40 μl) on the corneal surface. Contralateral eyes were treated with the vehicle alone and were used as controls in each experiment. The IOP was measured before each application and at 2 h, 4 h and 6 h following the instillation for 10 days.
The data are summarized in Table 2 where values represent the mean of the normalized maximum percentage of IOP reduction after siRNA treatment and their standard deviations. The decrease in IOP was statistically significant for all the treated targets.
“SEQ ID NO: 5: siRNA targeting carbonic anhydrase IV (CA4) (CAUCGUCACCACCAAGGCA; two-thymidine 3' overhang, other chemistry not given here; listed as Homo sapiens)” was tested, and the “decrease of IOP over a saline control” value was 16%.
With “SEQ ID NO: 105: siRNA targeting adrenergic, beta-1-, receptor (ADRB1) (CGACCCCAAGUGCUGCGAC; 3' dTdT, sugars by position and backbone not given here; listed as Homo sapiens)” the “decrease of IOP over a saline control” value was 25%.
For “SEQ ID NO: 139: siRNA targeting human adrenergic, beta-2-, receptor (ADRB2) (CAUUGUGCAUGUGAUCCAG; listed as RNA, chemistry not given here; listed as Homo sapiens)”, the “decrease of IOP over a saline control” value was 22%.
“SEQ ID NO: 189: siRNA targeting human acetylcholinesterase (ACHE) (CCGUGAGCUGAGCGAGGAC; two-thymidine 3' overhang, other chemistry not given here; listed as Homo sapiens)” was tested, and the “decrease of IOP over a saline control” value was 25%.

Same assay, conditions: mean normalized maximum percentage of IOP reduction ± SD, topical to corneal surface, once daily for four consecutive days
With “SEQ ID NO: 5: siRNA targeting carbonic anhydrase IV (CA4) (CAUCGUCACCACCAAGGCA; two-thymidine 3' overhang, other chemistry not given here; listed as Homo sapiens)” the “IOP Reduction (% of saline control)” value was 14.47 ± 5.00%.
“SEQ ID NO: 105: siRNA targeting adrenergic, beta-1-, receptor (ADRB1) (CGACCCCAAGUGCUGCGAC; 3' dTdT, sugars by position and backbone not given here; listed as Homo sapiens)” was tested, and the “IOP Reduction (% of saline control)” value was 28.04 ± 2.98%.
“SEQ ID NO: 522: siRNA targeting carbonic anhydrase XII (CA12) (AUGAUCAACAACUUCCGGC; two-thymidine 3' overhang, other chemistry not given here; listed as Homo sapiens)” was tested, and the “IOP Reduction (% of saline control)” value was 24.30 ± 1.29%.
In the case of “SEQ ID NO: 774: siRNA targeting AGTR2 (angiotensin II receptor, type 2) (GCAUCUUAUAUAGUUCCCC; two-thymidine 3' overhang, other chemistry not given here; listed as Homo sapiens)”, the “IOP Reduction (% of saline control)” value is reported as 11.22 ± 1.53%.
With “SEQ ID NO: 1399: siRNA targeting ATP1A1 (ATPase, Na+/K+ transporting, alpha 1 polypeptide) (CUGGAACUCUGACUCAGAA; 3' dTdT, sugars by position and backbone not given here; listed as Homo sapiens)” the “IOP Reduction (% of saline control)” value was 18.13 ± 1.39%.
In the case of “SEQ ID NO: 1820: siRNA targeting ATP1B2 (ATPase, Na+/K+ transporting, beta 2 polypeptide) (GUUCCACGUGAACUACACA; 3' dTdT, sugars by position and backbone not given here; duplex siRNA; listed as Homo sapiens)”, the “IOP Reduction (% of saline control)” value is reported as 16.32 ± 0.91%.
In the case of “SEQ ID NO: 1838: siRNA targeting rabbit carbonic anhydrase II; rabbit homolog of SEQ ID NO: 73 (GAUUGGCAGUGCUACACCA; 3' dTdT, sugars by position and backbone not given here; duplex siRNA; listed as Oryctolagus sp.)”, the “IOP Reduction (% of saline control)” value is reported as 24.84 ± 3.41%.
With “SEQ ID NO: 1841: siRNA targeting rabbit adrenergic, beta-2-, receptor; rabbit homolog of SEQ ID NO: 139 (CAUCGUGCACGUGAUCCAG; 3' dTdT, sugars by position and backbone not given here; duplex siRNA; listed as Oryctolagus sp.)” the “IOP Reduction (% of saline control)” value was 21.18 ± 1.88%.
In the case of “SEQ ID NO: 1846: siRNA targeting rabbit acetylcholinesterase; rabbit homolog of SEQ ID NO: 189 (CCGUGAGCUGAGUGAGGAC; two-thymidine 3' overhang, other chemistry not given here; listed as Oryctolagus sp.)”, the “IOP Reduction (% of saline control)” value is reported as 25.25 ± 2.70%.
With “SEQ ID NO: 1848: siRNA targeting rabbit selectin E (SELE); rabbit homolog of SEQ ID NO: 262 (GCCAACUUGUAAAGCUGUG; 3' dTdT, sugars by position and backbone not given here; duplex siRNA; listed as Oryctolagus sp.)” the “IOP Reduction (% of saline control)” value was 21.80 ± 1.74%.
In the case of “SEQ ID NO: 1850: siRNA targeting PTGS1; rabbit homolog of SEQ ID NO: 322 (CGUGAGCUAUUACACGCGU; 3' dTdT, sugars by position and backbone not given here; duplex siRNA; listed as Oryctolagus sp.)”, the “IOP Reduction (% of saline control)” value is reported as 14.62 ± 1.93%.
In the case of “SEQ ID NO: 1856: siRNA, rabbit homolog of SEQ ID NO: 546; target printed ADRAIA (GACCGACAAAUCCGACUCG; 3' dTdT, sugars by position and backbone not given here; duplex siRNA; listed as Oryctolagus sp.)”, the “IOP Reduction (% of saline control)” value is reported as 9.51 ± 1.04%.
For “SEQ ID NO: 1858: siRNA, rabbit homolog of SEQ ID NO: 619; target printed ADRAM (GAACUUUCAUGAGGACACC; 3' dTdT, sugars by position and backbone not given here; duplex siRNA; listed as Oryctolagus sp.)”, the “IOP Reduction (% of saline control)” value was 17.48 ± 1.30%.
With “SEQ ID NO: 1859: siRNA targeting AGTR1; rabbit homolog of SEQ ID NO: 705 (ACUCAAGACUGUGGCCAGU; 3' dTdT, sugars by position and backbone not given here; duplex siRNA; listed as Oryctolagus sp.)” the “IOP Reduction (% of saline control)” value was 9.72 ± 1.35%.
In the case of “SEQ ID NO: 1860: siRNA targeting ACE1; rabbit homolog of SEQ ID NO: 866 (CUGGAACUAUAACACCAAC; two-thymidine 3' overhang, other chemistry not given here; listed as Oryctolagus sp.)”, the “IOP Reduction (% of saline control)” value is reported as 17.51 ± 1.28%.

Source: US8951982B2, “Methods and compositions for the treatment of eye disorders with increased intraocular pressure” (Sylentis S.A.U., priority 2004, dated 2015)
